Data reported in US20250129012A1, “ANTI-INFLAMMATORY AND ANALGESIC COMPOUNDS AND USE THEREOF” (JIANGSU ATOM BIOSCIENCE AND PHARMACEUTICAL CO., LTD., priority 2021, published 2025).
Read-outs that look alike come from different tables or passages of the source. Marks after values point to notes of the source that are not given here.

Experiments:
[1] = system: gouty arthritis rats (sodium urate, right ankle and knee joint cavities); test: Pharmacodynamics experiment B on gouty arthritis rats: gait score; format: in vivo, SD rats; details: for Gait Score: dose 0.6 mg/kg gavage, mean; for Gait versus model group, in words: compounds 0.6 mg/kg, colchicine 0.6 and 1.2 mg/kg
Protocol: (§1) Compounds 12, 16, 19, 30, 34, 36, 38, 40, 44, 48, 49, 52, 58, 69, 83, 98, 102, 119, 121, and 122 were prepared by grinding with 0.5% CMC-Na prior to administration and formulated into suspensions of appropriate concentration (0.12 mg/mL) for gavage, with an administered dose of 0.5 mL/100 g.
(§2) 240 SD rats, males, were acclimatized for one week and weighed 180-220 g. […] The dose of each compound group was 0.6 mg/kg. The compounds in each group were prepared into the corresponding concentration suspension, and the volume of administration was 10 mL/kg.
(§3) 250 mg of sodium urate were added to 9 mL of saline, and 1 mL of Tween-80 solution was added, the resulting mixture was heated and stirred to formulate 10 mL of sodium urate solution. The rats were grasped and fixed, and 0.2 mL of sodium urate solution was injected into the right ankle and knee joint cavities respectively to establish gouty arthritis rat model.
(§4) Before modeling, positive drug and tested compounds were pre-administered for 7 days, once a day, and modeling was performed on day 8, and drug administration by gavage continued for 3 days after modeling.
Gait was scored according to the modified gait grading criteria introduced by Coderre et al. The gait of each rat was observed before and 2 h, 4 h, 8 h, 10 h, 24 h and 48 h after modeling and graded scoring was performed. The gait grading criteria were as follows: 0 point, normal walking; 1 point, slight lameness, the lower limbs were slightly bent; 2 points: moderate lameness, the lower limbs just touched the ground; 3 points, severe lameness, the lower limbs left the ground, and walked on three feet. The mean score of each group was calculated and compared with that of the model group.
(§5) Each experimental data was expressed as the mean, and intergroup comparisons were examined for significance using the ANOVA-Dunnett T-test, with P<0.05 as the significance indicator.

[2] = system: gouty arthritis rats (sodium urate, right ankle and knee joint cavities); test: Pharmacodynamics experiment B on gouty arthritis rats: ankle swelling rate; format: in vivo, SD rats; details: Rattus norvegicus, po, read-out: Swelling rate (ankle)
Protocol: as §1, §2, §3, §4
Before modeling and 2 h, 4 h, 8 h, 10 h, 24 h and 48 h after modeling, the circumference of the right ankle joint was measured using a soft ruler or the volume change at the ankle was measured (volumetric method), and the swelling degree and swelling rate of ankle joint were calculated:
Swelling degree (mm)=measured circumference (mm)−baseline circumference (mm)
Swelling rate (%)=swelling degree (mm)/baseline circumference (mm)×100%
as §5

Row | SMILES | Gait Score ([1]; 2 h) | Gait Score ([1]; 4 h) | Gait Score ([1]; 8 h) | Gait Score ([1]; 10 h) | Gait Score ([1]; 24 h) | Gait Score ([1]; 48 h) | Gait versus model group, in words [1] | change in vivo at 0.6 mg/kg ([2]; 2 h) [%] | change in vivo at 0.6 mg/kg ([2]; 4 h) [%] | change in vivo at 0.6 mg/kg ([2]; 8 h) [%] | change in vivo at 0.6 mg/kg ([2]; 10 h) [%] | change in vivo at 0.6 mg/kg ([2]; 24 h) [%] | change in vivo at 0.6 mg/kg ([2]; 48 h) [%]
1 | COc1cc2c(c(OC)c1OC)-c1cc(I)c(OC)c(=O)cc1[C@@H](NC(C)=O)CC2 [Compound 12, (S)—N-(11-iodo-1,2,3,10-tetramethoxy-9-oxo-5,6,7,9-tetrahydrobenzo[a]heptalen-7-yl)acetamide] | 0 | 0 | 0* | 0* | 0 | 0 | significant improvement in gait occurred at different time points | 10.8 | 16.5 | 18.7 | 31.4 | 22.8 | 15
2 | COc1cc2c(c(OC)c1OC)-c1cc(C)c(OC)c(=O)cc1[C@@H](NC(C)=O)CC2 [Compound 16, (S)—N-(1,2,3,10-tetramethoxy-11-methyl-9-oxo-5,6,7,9-tetrahydrobenzo[a]heptalen-7-yl)acetamide] | 0 | 0.1 | 0* | 0* | 0 | 0 | significant improvement in gait occurred at different time points | 9.71 | 13 | 17.8 | 17.4 | 18.6 | 6.17
3 | COc1cc2c(c(OC)c1OC)-c1cc(C)c(O[C@H]3CCOC3)c(=O)cc1[C@@H](NC(C)=O)CC2 [Compound 30, N—{(S)-1,2,3-trimethoxy-11-methyl-9-oxo-10-{[(S)-tetrahydrofuran-3-yl]oxy}-5,6,7,9-tetrahydrobenzo[a]heptalen-7-yl}acetamide] | 0 | 0 | 0* | 0* | 0.3 | 0 | significant improvement in gait occurred at different time points | -4.04 | 1.2 | 0.57 | 6.69 | 9.77 | -1.34
4 | COc1cc2c(c(OC)c1OC)-c1ccc(OCC(F)(F)F)c(=O)cc1[C@@H](NC(C)=O)CC2 [Compound 36, (S)—N-{1,2,3-trimethoxy-9-oxo-10-(2,2,2-trifluoroethoxy)-5,6,7,9-tetrahydrobenzo[a]heptalen-7-yl}acetamide] | 0 | 0 | 0* | 0* | 0.2 | 0.1 | significant improvement in gait occurred at different time points | -3.59 | 2.37 | 2.62 | 10.4 | 10 | -2.54
5 | COC(=O)c1cc2c(cc(=O)c1OC)[C@@H](NC(C)=O)CCc1cc(OC)c(OC)c(OC)c1-2 [Compound 40, methyl (S)-7-acetamido-1,2,3,10-tetramethoxy-9-oxo-5,6,7,9-tetrahydrobenzo[a]heptalen-11-carboxylate] | 0 | 0 | 0* | 0* | 0.4 | 0 | significant improvement in gait occurred at different time points | 5.81 | 7.96 | 11.2 | 9.9 | 21.7 | 9.33
